Results taken from patent US20240083874A1, “TARGETING PLECKSTRIN-2 FOR TREATING CANCER AND OTHER DISEASES AND DISORDERS” (Northwestern University, priority 2021, published 2024).
Entries after “also recorded” stand apart in the source; their conditions may differ.

Test system: mouse fetal liver erythroblasts
Experiment: mouse fetal liver erythroblast proliferation in erythropoietin containing medium
Assay type: cell-based
Conditions: approximately 10 uM NUP-52A added to the culture; proliferation monitored daily for two days; comparable to JAK2 inhibitor Ruxolitinib (FIG. 4)
Method: FIG. 4. Effect of NUP-52A on cell proliferation, differentiation, and enucleation in comparison to ruxolitinib. Ter119 negative mouse fetal liver erythroblasts were purified and cultured in erythropoietin containing medium. NUP-52A (Panels A, B, and C) or Ruxolitinib (Panels D, E, and F) with indicated concentrations were added to the culture media at the start of culture. The cells were cultured for two days. Cell proliferation, differentiation, and enucleation were analyzed using flow cytometry on day 2.
To screen these compounds, an assay using a well-developed Plek2 functional screening system (28) was performed. In this system, mouse fetal liver erythroid progenitors are purified and cultured in erythropoietin containing medium. These cells undergo rapid proliferation closely mimicking accelerated erythropoiesis in MPNs. In these cells, Plek2 is also highly expressed during the culture. This system then may be utilized to test Plek2 inhibitor compounds.
We used mouse fetal liver erythroblasts to test the compound. Approximately 10 uM NUP-52A was added in the fetal liver erythroblast culture and the proliferation of the cells is monitored daily for two days. […] (See FIG. 4).

## Clc1ccc2c(N3CCNCC3)cc(-c3c[nH]c4ccccc34)nc2c1 [NUP-52A, 7-chloro-4-(piperazin-1-yl)-2-(1H-indol-3-yl)quinoline]
  effect on the proliferation of erythroblasts: potent effects; also recorded: strong inhibitory effects
